“Also recorded” adds a separate entry of the source. Structures can show the parent of a compound that is named as a salt. Where two headings read alike, the source gives them in different places.
What was measured:
[1] = system: hind limb tonic extensor component of the audiogenic seizure; assay: Audiogenic seizure in mice (tonic extensor component), single oral dose; format: in vivo, male O'Grady strain mice; settings: for ED50: Mus musculus, po; for activity over time / time of peak effect: single oral dose, 1, 4 and 24 hours
Text: (§1) In this test, male O'Grady strain mice (14-16 grams) especially bred for susceptibility to audiogenic seizures were used as subjects. The audiogenic seizure apparatus consisted of a wooden box enclosing a metal container with two doorbells attached to the upper section. The test consisted of administering the test drug orally as a suspension in 10% olive oil and 90% Methocel (0.5%) to ten animals per dose. […] The test drugs included the present compound, DMHP, DPH, Δ^9 -THC and Phenobarbital.

[2] = system: hind limb tonic extensor component of the audiogenic seizure; assay: Audiogenic seizure test in mice (5-day chronic administration); format: in vivo, male O'Grady strain mice; settings: for ED50: Mus musculus, fifth day, 4 hr post drug administration, read-out: Five day chronic audiogenic seizure test ED50 4 hr; for ED50 / activity in abolishing hind limb tonic extensor component: mice, oral; for activity in abolishing hind limb tonic extensor component: five consecutive days
Text: as §1
In this test, the animals, diluent and apparatus described in Example 1, above, were used. The experimental procedure consisted of administering the test drugs orally for four days at 0.5 mg./kg. for the present compound and DMHP, and 1.0 and 0.1 mg./kg., respectively, for DPH and phenobarbital. On the fifth day of testing a dose response study (N=10 animals per dose) was initiated to obtain the ED50 for each compound.

[3] = system: hind limb tonic extension seizure (supramaximal electroshock); assay: Supramaximal electroshock seizures in rats (single oral dose); format: in vivo, male Long-Evans rats; settings: for ED50: Rattus norvegicus, rats, single oral dose
Text: In this test, male Long-Evans rats (170-190 grams) were orally administered the test drugs as a suspension in olive oil and Methocel 0.5% to 5 or 10 animals per dose. At one and four hours post drug administration each animal received an electroshock (150 milliamp for 0.2 seconds) through corneal electrodes to produce a hind limb tonic extension seizure. The animals were considered protected when the hind limb tonic extensor component was blocked.

[4] = system: hind limb tonic extension seizure (supramaximal electroshock); assay: Supramaximal electroshock test in rats (5-day chronic administration); format: in vivo, male Long-Evans rats; settings: for ED50: Rattus norvegicus, 5-day oral administration, fifth day, 4 hr post drug administration, read-out: ED50 4 hr (50% of animals protected from hind limb tonic extension)
[5] = system: all components of audiogenic seizures; assay: Audiogenic seizure test in mice (complete seizure protection); format: in vivo, male O'Grady strain mice; settings: single oral dose; for ED50: Mus musculus
Text: as §1
The animals, diluent, apparatus and experimental procedure described in Example 1 above were used for the present test in mice to determine the complete seizure protection of the various compounds. The compounds tested included the present compound, DMHP and Δ^9 -THC.

[6] = Side effects (sedation and irritability) on repeated medication; format: in vivo; settings: within a few days of medication
[7] = 1 h, mice, single oral dose, 1 hr post drug administration, read-out: 1 hr ED50 (50% of animals protected from hindlimb tonic extension)
[8] = 4 h, mice, single oral dose, 4 hr post drug administration, read-out: 4 hr ED50 (50% of animals protected from hindlimb tonic extension)
[9] = 24 h, mice, single oral dose, 24 hr post drug administration, read-out: 24 hr ED50 (50% of animals protected from hindlimb tonic extension)
[10] = 1 hr, read-out: 1 hr ED50 (50% of animals protected from hindlimb tonic extension)
[11] = 4 hr, read-out: 4 hr ED50 (50% of animals protected from hindlimb tonic extension)
[12] = 5-day oral, 2.5 mg./kg. (present compound, DMHP), 30.0 mg./kg. (DPH)
[13] = 4 hr post drug administration, read-out: Complete seizure protection 4 hr ED50

SMILES	ED50 [1, 7] [mg/kg]	ED50 [1, 8] [mg/kg]	ED50 [1, 9] [mg/kg]	ED50 [2] [mg/kg]	ED50 [3, 10] [mg/kg]	ED50 [3, 11] [mg/kg]	ED50 ([3]; 24 hr, read-out: 24 hr ED50) [mg/kg]	ED50 [4] [mg/kg]	activity over time / time of peak effect ([1]; mice)	activity in abolishing hind limb tonic extensor component [2]	tolerance to anticonvulsant activity [4, 12]	ED50 [5, 13] [mg/kg]	further results
O=C1NC(=O)C(c2ccccc2)(c2ccccc2)N1 [DPH, diphenylhydantoin]	1.7	3.3	11	< 0.5	23	62.2	> 200	26.6					
CCCCCc1cc(O)c2c(c1)OC(C)(C)C1CCC(C)=CC21 (single isomer, unassigned) [Δ9-THC]	5	38.8	> 100		53.3	40.6	> 200		most active at the one hour period				ED50 ([5]; 1 h, one hour data, read-out: Complete seizure protection ED50 (one hour data)): 6.5 mg/kg
CCCCCC(C)C(C)c1cc(OC(=O)CCCN2CCCCCC2)c2c(c1)OC(C)(C)C1=C2CC(C)CC1 (stereo not shown) [Present compound, 3-(3-methyl-2-octyl)-1-[4-(1-homopiperidine)butyryloxy]-6,6,9-trimethyl-7,8,9,10-tetrahydro-6H-dibenzo[b,d]pyran hydrochloride]	6.8	1.1	55.9	0.7	60.6	7.4	> 150	37.2		marked activity in abolishing the hind limb tonic extensor component	slight tolerance	7.8	ED50 ([1]; daily, general description, read-out: oral ED50 for blocking the tonic extensor component of audiogenic seizures): 1 to 2 mg/kg; 24 hr ED50 (50% of animals protected from hindlimb tonic extension) ([1]; mice, single oral dose, 24 hr post drug administration, hydrochloride, 1440 min): 55.5 mg/kg; anti-convulsant activity ([1]; mouse audiogenic seizure test, hydrochloride): marked activity in antagonizing the hind limb tonic extensor component; also recorded: potent anti-convulsant activity; retention of anticonvulsant activity on repeated medication ([2]; audiogenic seizure test in mice): retained without any loss of the potency; anti-convulsant activity ([3]; rat supramaximal electroshock test, hydrochloride): potent anti-convulsant activity; also recorded: marked activity in preventing the hind limb tonic extension feature of supramaximal electroshock; tolerance to anticonvulsant activity ([4]; daily higher doses such as 5.0 and 10.0 mg./kg.): increase in tolerance; antagonism of preconvulsive running [5]: preconvulsive running was not antagonized; tolerance to side effects of sedation and irritability [6]: marked tolerance develops to the side effects of sedation and irritability within a few days of medication
CCCCCC(C)C(C)c1cc(O)c2c(c1)OC(C)(C)C1=C2CC(C)CC1 (stereo not shown) [DMHP]	6.7	2.9	15.1	1.6	4.6	7.5	66.8	26.7	active over a prolonged period (24 hours)		slight tolerance	6.7	
CCC1(c2ccccc2)C(=O)NC(=O)NC1=O [Phenobarbital]	1.9	0.3	6	0.1	22	18	> 40		peak effect at four hours post drug administration	very active			

Reference: US4039674A, “3-(3-Methyl-2-octyl)-1-[4-(1-ho mopiperidine)butyryloxy]-6,6,9-trimethyl-7,8,9,10-tetrahydro-6H-dibenzo [b,d]pyran hydrochloride as an anticonvulsant agent” (Abbott Laboratories, priority 1976, dated 1977)
